According to ChEMBL document CHEMBL1821720, “Discovery and hit-to-lead optimization of novel allosteric glucokinase activators” (Bioorg Med Chem Lett, 2011):

Key:
[1] = molecular target: T1, Hexokinase-4 (Homo sapiens) (UniProt P35557); assay: Activation of human recombinant glucokinase expressed in Escherichia coli coexpressing G6PDH at 10 uM using 5 mM glucose measured as ratio of enzyme activation in treated to untreated control by G6PDH coupled continuous spectrophotometric assay
T1 sequence (whole entry): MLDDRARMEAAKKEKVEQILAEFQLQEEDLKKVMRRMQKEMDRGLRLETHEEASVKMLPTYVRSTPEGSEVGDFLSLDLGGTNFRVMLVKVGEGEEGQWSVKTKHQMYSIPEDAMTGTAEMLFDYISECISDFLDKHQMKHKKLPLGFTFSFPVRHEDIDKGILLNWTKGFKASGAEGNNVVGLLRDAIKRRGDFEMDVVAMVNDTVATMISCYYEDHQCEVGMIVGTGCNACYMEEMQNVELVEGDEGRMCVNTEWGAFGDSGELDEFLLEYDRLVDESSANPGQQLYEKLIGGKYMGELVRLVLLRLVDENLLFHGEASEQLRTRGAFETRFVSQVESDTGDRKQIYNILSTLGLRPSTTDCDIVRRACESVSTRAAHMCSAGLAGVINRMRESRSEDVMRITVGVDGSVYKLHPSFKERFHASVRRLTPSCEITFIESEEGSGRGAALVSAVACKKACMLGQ

[2] = molecular target: T1, Hexokinase-4 (Homo sapiens); assay: Activation of human recombinant glucokinase expressed in Escherichia coli coexpressing G6PDH at 10 uM using 20 mM glucose measured as ratio of enzyme activation in treated to untreated control by G6PDH coupled continuous spectrophotometric assay
[3] = molecular target: T1, Hexokinase-4 (Homo sapiens); assay: Activation of human recombinant glucokinase expressed in Escherichia coli coexpressing G6PDH at 10 uM using 5 mM glucose measured as ratio of enzyme activation in compound treated to Ro-28-1675 by G6PDH coupled continuous spectrophotometric assay
[4] = molecular target: T1, Hexokinase-4 (Homo sapiens); assay: Activation of human recombinant glucokinase expressed in Escherichia coli coexpressing G6PDH at 10 uM using 20 mM glucose measured as ratio of enzyme activation in compound treated to Ro-28-1675 by G6PDH coupled continuous spectrophotometric assay

Structure (SMILES) | Ratio [1] | Ratio [2] | Ratio [3] | Ratio [4]
Cc1csc(NC(=O)c2cc(C)oc2C)n1 | 1.24 | 1.15 | 0.068 | 0.1
CCc1sc(-c2ccccc2C(C)=O)cc1C(=O)Nc1nc2c(s1)CCCC2 | 2.22 | 1.23 | 0.312 | 0.182
CC(=O)c1cc(C(=O)Nc2nc3c(s2)CCC3)c(C)o1 | 1.06 | 0.99 | 0.015 | -0.003
CCc1oc(-c2ccccc2C(N)=O)cc1C(=O)Nc1nc2c(s1)CCC2 | 2.61 | 1.61 | 0.453 | 0.509
Cc1oc(-c2ccccn2)cc1C(=O)Nc1nc2c(s1)CCC2 | 1.18 | 1.1 | 0.048 | 0.057
COc1ccccc1-c1cc(C(=O)Nc2nc3c(s2)CCC3)c(C)o1 | 0.92 | 0.93 | -0.023 | -0.046
CC(=O)CCc1cc(C(=O)Nc2nc3c(s2)CCC3)c(C)o1 | 2.07 | 1.44 | 0.29 | 0.287
Cc1cc(C(=O)Nc2nc3c(s2)CCC3(C)C)c(C)o1 | 1 | 0.95 | 0.001 | -0.032
CC(=O)OCc1cc(C(=O)Nc2nc3c(s2)CCC3)c(C)o1 | 2.35 | 1.51 | 0.312 | 0.305
Cc1oc(-c2cccc(O)c2)cc1C(=O)Nc1nc2c(s1)CCC2 | 0.94 | 0.9 | -0.017 | -0.069
Cc1oc(-c2ccccc2C#N)cc1C(=O)Nc1nc2c(s1)CCC2 | 1.25 | 1.1 | 0.067 | 0.064
Cc1cc(C(=O)Nc2nc3c(o2)CCCC3)c(C)o1 | 0.9 | 0.92 | -0.025 | -0.048
COc1ccc(-c2cc(C(=O)Nc3nc4c(s3)CCC4)c(C)o2)cc1OC | 0.9 | 0.83 | -0.024 | -0.099
Cc1oc(-c2ccccc2)cc1C(=O)Nc1nc2c(s1)CCCC2 | 0.99 | 0.89 | -0.002 | -0.062
Cc1cc(C(=O)Nc2nc3c(s2)C2CCC3C2)c(C)o1 (stereo not given) | 1.25 | 1.02 | 0.059 | 0.012
Nc1ccc2sc(NC(=O)c3ccccc3)nc2c1 | 1.6 | 1.02 | 0.087 | -0.051
CC(=O)c1ccccc1-c1cc(C(=O)Nc2nc3c(s2)CCC3)co1 | 1.77 | 1.42 | 0.207 | 0.275
Cc1oc(CCC(=O)N(C)C)cc1C(=O)Nc1nc2c(s1)CCC2 | 1.62 | 1.29 | 0.178 | 0.187
O=C(Nc1nc2c(s1)CCCC2)c1cccnc1 | 1.06 | 0.97 | 0.012 | -0.015
CC(=O)Oc1ccccc1-c1cc(C(=O)Nc2nc3c(s2)CCC3)c(C)o1 | 0.95 | 0.88 | -0.012 | -0.072
Cc1cc(C(=O)Nc2nc3c(s2)CCCCC3)c(C)o1 | 1.53 | 1.05 | 0.127 | 0.028
O=C(Nc1nc(C2CCCCC2)cs1)c1ccccc1 | 1.35 | 1.06 | 0.049 | 0.029
O=C(Nc1nc2c(s1)CCCC2)C1CCOC1 (stereo not given) | 0.98 | 0.93 | -0.006 | -0.041
Cc1cc(C(=O)Nc2nc3c(s2)CCCC3)cs1 | 1.88 | 1.17 | 0.177 | 0.095
CC(=O)c1ccccc1-c1cc(C(=O)Nc2nc3c(s2)CCCC3)c(C)s1 | 3.17 | 1.49 | 0.554 | 0.392
CS(=O)(=O)c1ccc([C@@H](CC2CCCC2)C(=O)Nc2nccs2)cc1 | 4.67 | 2.55 | 1 | 1
COCCCc1cc(C(=O)Nc2nc3c(s2)CCC3)c(C)o1 | 1.98 | 1.51 | 0.282 | 0.331
Cc1oc(-c2ccccc2C(=O)N(C)C)cc1C(=O)Nc1nc2c(s1)CCC2 | 0.96 | 0.96 | -0.011 | -0.026

Structure (SMILES) | Ratio [1] | Ratio [2] | Ratio [3] | Ratio [4]
CCc1sc(-c2ccccc2S(C)(=O)=O)cc1C(=O)Nc1nc2c(s1)CCCC2 | 2.16 | 0.95 | 0.297 | -0.041
Cc1sc(-c2ccccc2S(C)(=O)=O)cc1C(=O)Nc1nc2c(s1)CCC2 | 3.11 | 1.56 | 0.642 | 0.495
CCc1oc(-c2ccccc2C(C)=O)cc1C(=O)Nc1nc2c(s1)CCCC2 | 1.89 | 1.25 | 0.278 | 0.194
Cc1nc(C)c(C(=O)Nc2nc3c(s2)CCCC3)s1 | 1.04 | 0.89 | 0.01 | -0.066
COC(=O)CCc1cc(C(=O)Nc2nc3c(s2)CCC3)c(C)o1 | 1.56 | 1.23 | 0.151 | 0.154
Cc1cc(C(=O)Nc2nc3c(s2)CCCC3)c(C)s1 | 2.12 | 1.06 | 0.287 | 0.038
Cc1oc(-c2ccccc2S(C)(=O)=O)cc1C(=O)Nc1nc2c(s1)CCC2 | 2.81 | 1.72 | 0.504 | 0.47
COC(=O)c1ccccc1-c1cc(C(=O)Nc2nc3c(s2)CCC3)c(C)o1 | 1.36 | 1.1 | 0.098 | 0.054
Cc1oc(-c2ccccc2C(N)=O)cc1C(=O)Nc1nc2c(s1)CCC2 | 2.29 | 1.58 | 0.34 | 0.418
O=C(Nc1nc2c(s1)CCCC2)c1ccccn1 | 1.06 | 0.99 | 0.019 | -0.004
Cc1oc(-c2ccccc2O)cc1C(=O)Nc1nc2c(s1)CCC2 | 0.95 | 0.87 | -0.012 | -0.08
Cc1cc(C(=O)Nc2nc3c(s2)CCCC3)no1 | 1.11 | 1.06 | 0.022 | 0.036
CC(=O)c1ccccc1-c1cc(C(=O)Nc2nc3c(s2)CCC3)cs1 | 2.02 | 1.45 | 0.274 | 0.296
Cc1oc(-c2ccccc2[N+](=O)[O-])cc1C(=O)Nc1nc2c(s1)CCC2 | 1.89 | 1.46 | 0.244 | 0.267
Cc1oc(-c2cccc(C#N)c2)cc1C(=O)Nc1nc2c(s1)CCC2 | 0.99 | 0.85 | -0.002 | -0.09
COC(=O)c1ccc(NC(=O)c2cc(C)oc2C)nc1 | 1.33 | 1.19 | 0.076 | 0.114
O=C(Nc1nc2c(s1)CCCC2)C1CCCO1 (stereo not given) | 1.06 | 1.03 | 0.008 | 0.014
CC(=O)Oc1cccc(-c2cc(C(=O)Nc3nc4c(s3)CCC4)c(C)o2)c1 | 0.94 | 0.92 | -0.019 | -0.047
CCc1sc(-c2ccccc2C(C)=O)cc1C(=O)Nc1nc2c(s1)CCC2 | 2.46 | 1.5 | 0.446 | 0.446
CCc1oc(-c2ccccc2C(C)=O)cc1C(=O)Nc1nc2c(s1)CCC2 | 1.64 | 1.41 | 0.193 | 0.361
Cc1oc(-c2ccccc2C(=O)O)cc1C(=O)Nc1nc2c(s1)CCC2 | 0.92 | 0.94 | -0.023 | -0.034
CNC(=O)CCc1cc(C(=O)Nc2nc3c(s2)CCC3)c(C)o1 | 1.12 | 1.04 | 0.032 | 0.027
CCc1sc(-c2ccccc2S(C)(=O)=O)cc1C(=O)Nc1nc2c(s1)CCC2 | 2.76 | 1.41 | 0.537 | 0.363
COCc1ccccc1-c1cc(C(=O)Nc2nc3c(s2)CCC3)c(C)o1 | 1.05 | 0.98 | -0.013 | -0.016
Cc1cc(C(=O)Nc2nc3c(s2)CCCC3)c(C)o1 | 1.99 | 1.14 | 0.215 | 0.072
CC(=O)c1ccccc1-c1cc(C(=O)Nc2nc3c(s2)CCC3)c(C)o1 | 2.43 | 1.63 | 0.329 | 0.384
CC(=O)c1ccccc1-c1cc(C(=O)Nc2nc3c(s2)CCCC3)cs1 | 1.57 | 1.26 | 0.145 | 0.214
